Assay results from ChEMBL document CHEMBL1127133, “Substituted 6-alkyloxapenems: potent -lactamase inhibitors: synthesis and biological characterization” (Bioorg Med Chem Lett, 1993).

Test: T1/2 (phosphate buffer pH 7.0 @ 28 degree C)
Format: ADME

| SMILES | half-life |
| --- | --- |
| CC(C)(C)C1=C(C(=O)[O-])N2C(=O)[C@H](CNC(=O)[C@H](N)c3ccccc3)[C@H]2O1.[Na+] | 2.2 h |
| CC(C)(C)C1=C(C(=O)[O-])N2C(=O)[C@H]([C@@H](O)CCc3ccc(O)cc3)[C@H]2O1.[Na+] | 21.2 h |
| CC(C)(C)C1=C(C(=O)[O-])N2C(=O)[C@H]([C@@H](O)c3ccccc3)[C@H]2O1.[Na+] | 8.9 h |
| CC(C)(C)C1=C(C(=O)[O-])N2C(=O)[C@H]([C@H](O)c3ccccc3)[C@H]2O1.[Na+] | 7 h |
| C[C@H](O)[C@H]1C(=O)N2C(C(=O)[O-])=C(C(C)(C)C)O[C@H]12.[Na+] | 7.1 h |
| C[C@@H](O)[C@H]1C(=O)N2C(C(=O)[O-])=C(C(C)(C)C)O[C@H]12.[Na+] | 8.1 h |
| COC(=O)[C@H](O)[C@H]1C(=O)N2C(C(=O)[O-])=C(C(C)(C)C)O[C@H]12.[Na+] | 6.7 h |
| C[C@@H](F)[C@H]1C(=O)N2C(C(=O)[O-])=C(C(C)(C)C)O[C@H]12.[Na+] | 3.5 h |
| CC(C)(C)C1=C(C(=O)[O-])N2C(=O)[C@H](CNS(=O)(=O)Cc3ccccc3)[C@H]2O1.[Na+] | 8.9 h |
| CC(C)(C)C1=C(C(=O)[O-])N2C(=O)[C@H]([C@H](O)c3ccccc3)[C@@H]2O1.[Na+] | 0.5 h |
| CC(C)(C)C1=C(C(=O)[O-])N2C(=O)[C@H](CNC(=O)Cc3ccccc3)[C@H]2O1.[Na+] | 5.5 h |
| CC(C)(C)C1=C(C(=O)[O-])N2C(=O)[C@H]([C@H](O)CCc3ccncc3)[C@@H]2O1.[Na+] | 7.1 h |
| CC(C)(C)C1=C(C(=O)[O-])N2C(=O)[C@H](CNC(=O)CNC(=O)Cc3ccccc3)[C@H]2O1.[Na+] | 6.6 h |
| CC(C)(C)C1=C(C(=O)[O-])N2C(=O)[C@H]([C@@H](O)CCc3ccccc3)[C@H]2O1.[Na+] | 39 h |
| CC(C)(C)C1=C(C(=O)[O-])N2C(=O)[C@H](CN)[C@H]2O1.[Na+] | 1.2 h |
| CC(C)(C)C1=C(C(=O)[O-])N2C(=O)[C@H]([C@@H](O)CCc3ccncc3)[C@H]2O1.[Na+] | 15.8 h |
| CC(C)(C)C1=C(C(=O)[O-])N2C(=O)[C@H]([C@@H](O)c3ccncc3)[C@H]2O1.[Na+] | 6 h |
| CC(C)(C)C1=C(C(=O)[O-])N2C(=O)[C@H](CNS(C)(=O)=O)[C@H]2O1.[Na+] | 2.2 h |
| CC(C)(C)OC(=O)[C@H](O)[C@H]1C(=O)N2C(C(=O)[O-])=C(C(C)(C)C)O[C@H]12.[Na+] | 10.7 h |

| SMILES | half-life |
| --- | --- |
| CC(C)(C)C1=C(C(=O)[O-])N2C(=O)[C@H]([C@H](O)CCc3ccncc3)[C@H]2O1.[Na+] | 13.7 h |
| CC(C)(C)C1=C(C(=O)[O-])N2C(=O)[C@H](CO)[C@@H]2O1.[Na+] | 2.4 h |
| C[C@H](F)[C@H]1C(=O)N2C(C(=O)[O-])=C(C(C)(C)C)O[C@H]12.[Na+] | 7.2 h |
| Cn1cc([C@H](O)[C@H]2C(=O)N3C(C(=O)[O-])=C(C(C)(C)C)O[C@H]23)nn1.[Na+] | 7 h |
| CC(C)(C)C1=C(C(=O)[O-])N2C(=O)[C@H]([C@H](O)CCc3ccc(O)cc3)[C@H]2O1.[Na+] | 24.6 h |
| CC(C)(C)C1=C(C(=O)[O-])N2C(=O)[C@H](CNC(=O)COC(=O)Cc3ccccc3)[C@H]2O1.[Na+] | 9.3 h |
| CC(C)(C)C1=C(C(=O)[O-])N2C(=O)[C@H](CNC(=O)COc3ccccc3)[C@H]2O1.[Na+] | 5.7 h |
| CC(=O)NC[C@H]1C(=O)N2C(C(=O)[O-])=C(C(C)(C)C)O[C@H]12.[Na+] | < 3 h |
| CC(C)(C)C1=C(C(=O)[O-])N2C(=O)[C@H]([C@@H](O)c3ccccc3)[C@@H]2O1.[Na+] | 2.2 h |
| COC(=O)[C@@H](O)[C@H]1C(=O)N2C(C(=O)[O-])=C(C(C)(C)C)O[C@H]12.[Na+] | 6.2 h |
| CC(C)(C)C1=C(C(=O)[O-])N2C(=O)[C@H](CO)[C@H]2O1.[Na+] | 5 h |
| CC(C)(C)C1=C(C(=O)[O-])N2C(=O)[C@H]([C@H](O)CCc3ccccc3)[C@H]2O1.[Na+] | 21 h |
| CC(C)(C)C1=C(C(=O)[O-])N2C(=O)[C@H]([C@@H](O)c3ccc(O)cc3)[C@H]2O1.[Na+] | 10.3 h |
| C[C@@H](O)[C@H]1C(=O)N2C(C(=O)[O-])=C(C(C)(C)C)O[C@@H]12.[Na+] | 6.4 h |
| Cn1cc([C@@H](O)[C@H]2C(=O)N3C(C(=O)[O-])=C(C(C)(C)C)O[C@H]23)nn1.[Na+] | 6.8 h |
| CC(C)(C)C1=C(C(=O)[O-])N2C(=O)[C@H]([C@H](O)c3ccncc3)[C@H]2O1.[Na+] | 6.4 h |
| CC(C)(C)C1=C(C(=O)[O-])N2C(=O)[C@H]([C@@H](O)CCc3ccc(O)cc3)[C@@H]2O1.[Na+] | 11.8 h |
| CC(C)(C)C1=C(C(=O)[O-])N2C(=O)[C@H](CNC(=O)CCNC(=O)Cc3ccccc3)[C@H]2O1.[Na+] | 5.5 h |
| O=C([O-])[C@H]1/C(=C/CO)O[C@@H]2CC(=O)N21.[K+] [CLAVULANATE POTASSIUM] | 60 h |
